# Results from patent US20110028559A1, “SUBSTITUTED FLUOROETHYL UREAS AS ALPHA 2 ADRENERGIC AGENTS” (priority 2007, published 2011).
# Biological target: T1, Alpha 2C (Homo sapiens, UniProt P18825)
# T1 sequence (P18825 1-462): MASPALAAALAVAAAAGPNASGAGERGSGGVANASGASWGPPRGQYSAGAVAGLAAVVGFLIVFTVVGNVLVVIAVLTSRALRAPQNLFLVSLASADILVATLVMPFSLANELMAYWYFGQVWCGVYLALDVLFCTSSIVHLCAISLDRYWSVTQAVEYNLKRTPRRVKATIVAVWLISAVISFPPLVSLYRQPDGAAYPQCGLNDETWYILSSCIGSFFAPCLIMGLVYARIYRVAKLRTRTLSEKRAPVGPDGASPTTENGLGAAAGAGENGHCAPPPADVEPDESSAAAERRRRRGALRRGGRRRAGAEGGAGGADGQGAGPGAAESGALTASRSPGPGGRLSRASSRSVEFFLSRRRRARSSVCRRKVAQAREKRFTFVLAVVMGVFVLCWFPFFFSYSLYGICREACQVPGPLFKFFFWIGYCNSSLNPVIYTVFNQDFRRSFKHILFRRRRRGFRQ
# Assay: Alpha 2C adrenergic receptor functional activity (procedure of U.S. 60/911,442)
# Type: cell-based
# From the text: U.S. Provisional Patent Application Ser. No. 60/911,442, filed Apr. 12, 2007, describes the procedure used to obtain the data in the table below. That procedure is incorporated by reference herein.
compound,measurement,value
CCC[C@@H]1CCCC[C@H]1NC(=O)NCCF [1-(2-Fluoro-ethyl)-3-(2R-propyl-1R-cyclohexyl)-urea],Alpha 2C EC50,not active
